Measurements reported in patent publication US20250188033A1, “INHIBITOR OF REPLICATION PROTEIN A1 OF TRYPANOSOMA BRUCEI AND METHOD OF USE THEREOF” (Research Foundation of the City University of New York, published 2025).
Where two headings read alike, the source gives them in different places.

Legend:
T. brucei cells [1] = assay: Immunoblotting of TbRPA1, γH2A and VSG3 protein levels; assay type: cell-based, Trypanosoma brucei; conditions: 10 μM; for fold increase in the levels of γH2A: relative to untreated, normalized to tubulin
Procedure: (§1) Without wishing to be bound to any particular theory, if JC-229 indeed binds and inhibits the functions of TbRPA1, as predicted from the structural model, JC-229-treated trypanosome cells should show similar phenotypes to TbRPA1-depleted cells without affecting TbRPA1 protein levels. Wild-type T. brucei cells was treated with 10 μM JC-229 for 48 hours and the cell-cycle profile and efficiency of DNA synthesis was monitored. TbRPA1, γH2A, VSG3, and Tubulin protein levels were also monitored (FIG. 3A, FIG. 3B, FIG. 3C and FIG. 3D).
Cells were harvested at indicated time points and suspended in Laemmli buffer (Bio-Rad) at 0.25 million cells per μl. Denatured proteins from whole cells were separated on a 4-20% gradient SDS-PAGE gel (BioRAD) and transferred to nitrocellulose membrane (GE Healthcare). The membranes were probed with polyclonal antibodies against TbRPA1 (a gift from Bibo Li laboratory) or γH2A (generated by ABclonal for this study), or monoclonal mouse antibodies against VSG3 (Antibody and Bioresource Core facility, MSKCC) or tubulin (Sigma) in 1× PBS with 0.1% Tween 20 and 1% milk (BioRAD) at 4° C. overnight. The membranes were then incubated with secondary antibodies conjugated with Horseradish Peroxidase (HRP) (GE healthcare) for the detection of corresponding proteins using chemiluminescence (Hyglo from Denville Scientific, ChemiDoc Imaging System from BioRAD).

HEK293 cells = assay: ALAMARBLUE cell viability assay of human cells (HEK293); assay type: cell-based
Procedure: (§2) Human cell lines, HeLa and HEK293 were maintained in Dulbecco's modified MEM (D-MEM, GIBCO) supplemented with 10% fetal bovine serum (GIBCO) at 37° C. with 5% CO2.
(§3) To determine the inhibitory effect of JC-229 on human cells, HeLa and HEK293 cells were suspended in 180 μl D-MEM with 10% FBS and plated at a density of 2×10^4 cells/ml in triplicate. Cells were adhered overnight, and the medium was replaced, and cells were then incubated for 72 hours with increasing concentrations of JC-229 (0.5 μM to 50 μM) and cell viability was determined using the ALAMARBLUE® dye as described above. Percent viability was plotted using GraphPad Prism software. […] The EC50 values were estimated using the concentration of JC-229 that cause 50% reduction of cell viability (inhibitor vs. normalized response, variable slope).

T. brucei cells [2] = assay: Cell-cycle analysis by PI staining and flow cytometry; assay type: cell-based, Trypanosoma brucei; conditions: 10 μM
Procedure: as §1
About 10 million cells were collected after tetracycline induction or after JC-229 treatment. Cells were fixed with ice-cold 70% ethanol and incubated with 50 μg/ml PI (Sigma-Aldrich) and 200 μg/ml RNase A (Sigma-Aldrich) in 1×PBS (Corning) at 37° C. for 30 min in the dark. Samples were analyzed by flow cytometry (FACSVia, BD Biosciences) and FLOWJO®.

Trypanosoma brucei = assay: ALAMARBLUE cell viability / growth assay of T. brucei cells; assay type: cell-based
Procedure, shortened: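 Parasites seeded at 1×10^3 cells/ml in triplicate, exposed to compound for 72 h (0.0075% DMSO vehicle). AlamarBlue added for 4-6 h, fluorescence read at 560/590 nm; % viable cells calculated from RFU normalized to DMSO control, EC50 from 0.5-50 μM series.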

HeLa cells = assay: ALAMARBLUE cell viability assay of human cells (HeLa); assay type: cell-based
Procedure: as §2, §3

TbRPA1 DBD-AB S105T = TbRPA1 DBD-AB S105T (Trypanosoma brucei, UniProt Q384B5 Q384B5:1-257, S105T); assay: EMSA; 10 mM MgCl2, RT; not inhibited by JC-229; conditions: tags: 6xHis, pET28a, E. coli; label: 5' IRDye800
TbRPA1 DBD-AB F64A = TbRPA1 DBD-AB F64A (Trypanosoma brucei, UniProt Q384B5 Q384B5:1-257, F64A); assay: EMSA; no ssDNA-binding activity; conditions: tags: 6xHis, pET28a, E. coli; label: 5' IRDye800
TbRPA1 DBD-AB W188A = TbRPA1 DBD-AB W188A (Trypanosoma brucei, UniProt Q384B5 Q384B5:1-257, W188A); assay: EMSA; no ssDNA-binding activity; conditions: tags: 6xHis, pET28a, E. coli; label: 5' IRDye800
[3] = T. brucei, 2 μM, 72 hours, normalized to DMSO control
[4] = T. brucei, 5 μM, 72 hours, normalized to DMSO control

## Cc1ccc(C(=O)Nc2ccc(Cl)c(Cl)c2)cc1S(=O)(=O)Nc1ccc(Cl)c(Cl)c1 [JC-229, N-(3,4-dichlorophenyl)-3-(N-(3,4-dichlorophenyl)sulfamoyl)-4-methylbenzamide]
T. brucei cells [1]; 16 hours
  fold increase in the levels of γH2A: approximately 5 fold
T. brucei cells [1]; 24 hours
  fold increase in VSG3 protein levels: ~3 fold
  fold increase in the levels of γH2A: ~7 fold
HEK293 cells; HEK293, 0.5 to 50 μM, 72 hours, estimated, curve did not reach bottom plateau
  EC50: 18.4 µM
HEK293 cells; HEK293, at 6.5 μM (EC50 to T. brucei)
  inhibition at 6.5 µM: < 20%
HEK293 cells; HEK293, at 50 μM, the maximum concentration
  inhibition at 50 µM: < 100%
T. brucei cells [2]; 32-hour time point
  sub-G1 population: ~45%
T. brucei cells [2]; by 48 hours
  cells that lost the bulk of their DNA: ~97%
Trypanosoma brucei; Trypanosoma brucei, 72 h, read-out: EC50 (T. brucei viability), T. brucei, 0.5 to 50 μM, 72 hours
  EC50: 6.6 µM
Trypanosoma brucei; Trypanosoma brucei, T. brucei, 2 μM, 72 hours, normalized to DMSO control
  inhibition at 2 µM: 24%
Trypanosoma brucei; Trypanosoma brucei, T. brucei, 5 μM, 72 hours, normalized to DMSO control
  inhibition at 5 µM: 76%
Trypanosoma brucei; Trypanosoma brucei, T. brucei, 10 μM, 72 hours, normalized to DMSO control
  inhibition at 10 µM: 100%
Trypanosoma brucei; read-out: EC50 (T. brucei viability), T. brucei, 0.5 to 50 μM, 72 hours
  EC50: 6.5 µM
HeLa cells; 0.5 to 50 μM, 72 hours, estimated, curve did not reach bottom plateau
  EC50: 32.1 µM
HeLa cells; at 6.5 μM (EC50 to T. brucei)
  inhibition at 6.5 µM: < 20%
HeLa cells; at 50 μM, the maximum concentration
  inhibition at 50 µM: < 100%

## Cc1ccc(C(=O)Nc2ccc(Cl)c(Cl)c2)cc1S(=O)(=O)N1CCC(NC(=S)Nc2cccc(C(F)(F)F)c2)CC1 [JC-1017]
Trypanosoma brucei; [3]
  % Inhibition @2 μM: 100%
Trypanosoma brucei; [4]
  % Inhibition @5 μM: 100%

## Cc1ccc(C(=O)Nc2ccc(Cl)c(Cl)c2)cc1S(=O)(=O)N1CCC(NC(=S)Nc2ccccc2F)CC1 [JC-1018]
Trypanosoma brucei; [3]
  % Inhibition @2 μM: 100%
Trypanosoma brucei; [4]
  % Inhibition @5 μM: 100%

## Cc1ccc(C(=O)Nc2ccc(Cl)c(Cl)c2)cc1S(=O)(=O)N1CCC(NC(=S)Nc2ccc(C(F)(F)F)cc2)CC1 [JC-1020]
Trypanosoma brucei; [3]
  % Inhibition @2 μM: 100%
Trypanosoma brucei; [4]
  % Inhibition @5 μM: 100%

## Cc1ccc(C(=O)Nc2ccc(Cl)c(Cl)c2)cc1S(=O)(=O)NCCNS(=O)(=O)c1cc(C(=O)Nc2ccc(Cl)c(Cl)c2)ccc1C [JC-1021]
Trypanosoma brucei; [3]
  % Inhibition @2 μM: 0%
Trypanosoma brucei; [4]
  % Inhibition @5 μM: −5%

## Cc1ccc(C(=O)Nc2ccc(Cl)c(Cl)c2)cc1S(=O)(=O)C1CCCN(C(=O)OC(C)(C)C)C1 (stereo not drawn) [Jc-950]
Trypanosoma brucei; [3]
  % Inhibition @2 μM: 28%
Trypanosoma brucei; [4]
  % Inhibition @5 μM: 3%

## CCOc1ccc2cc(C3CC(c4ccc(Br)cc4)=NN3C(=O)CCC(=O)O)c(Cl)nc2c1 (stereo not drawn) [TDRL-505, reference compound]
Trypanosoma brucei; even at 60 μM
  effect on T. brucei proliferation: no effect

B1: 5'IRDye800-dT32 (ssDNA)
DNA: TTTTTTTTTTTTTTTTTTTTTTTTTTTTTTTT
TbRPA1 DBD-AB S105T
  binding result: binds
TbRPA1 DBD-AB F64A
  binding result: no binding
TbRPA1 DBD-AB W188A
  binding result: no binding
